The results in this text go back to patent US11530221B2, “Pyrimido[4,5-d]pyrimidin-2-one derivatives as protein kinase inhibitors” (KOREA INSTITUTE OF SCIENCE AND TECHNOLOGY, priority 2019, dated 2022).

Like-named read-outs stand apart in the source and are kept apart here. Square brackets hold non-standard residues; d marks the D form. Peptide text beside a SMILES is read from it. * marks the point of attachment. X1 = Cc1ccc(Nc2ncc3c(n2)N(C)C(=O)N(c2cc(C(=O)*)ccc2C)C3)cn1; Aib = CC(C)(N)C(=O)O

Common to all, as to format: biochemical
The target of assay [1] is T1, LCK (Homo sapiens, UniProt P06239). Nature of the assay: Full kinase panel, single concentration: LCK. Conditions: read-out: residual enzyme activity (%) LCK. How it is done: (§1) In order to measure the inhibitory activity (% inhibitory capacity) against protein kinases of the compounds of the present invention, biochemical assays were performed using a full kinase panel.
(§2) The experimental compounds used herein were the compounds of Compound Nos. 1 and 33. The residual enzyme activity (%) was calculated by measuring the inhibitory activity against kinases upon treatment with the experimental compound at a single concentration of 1 μM. Kinases having calculated residual enzyme activity (%) of 30% or less (that is, inhibition of 70% or more) are shown below.

In assay [2] the target is T2, LYN (Homo sapiens, UniProt P07948). Nature of the assay: IC50 inhibitory activity against LYN kinase.
The target in a further assay is ABL2 (Homo sapiens, UniProt P42684). Nature of the assay: Full kinase panel, single concentration: ABL2. Conditions: read-out: residual enzyme activity (%) ABL2. How it is done: as §1, §2
Assay [3] concerns the target T3, FGR (Homo sapiens, UniProt P09769). Briefly: IC50 inhibitory activity against FGR kinase. Here is the method: (§3) IC50 values were calculated by measuring the inhibitory activity against LCK, c-Src, p38a/MAPK14, ABL1, DDR1 and FGR kinases of the compounds of the present invention.
In assay [4] the target is T4, c-Src (Homo sapiens, UniProt P12931). Briefly: IC50 inhibitory activity against c-Src kinase. How it is done:
as §3

The target in a further assay is T5, BMX (Homo sapiens, UniProt P51813).
T5 sequence (P51813 1-675): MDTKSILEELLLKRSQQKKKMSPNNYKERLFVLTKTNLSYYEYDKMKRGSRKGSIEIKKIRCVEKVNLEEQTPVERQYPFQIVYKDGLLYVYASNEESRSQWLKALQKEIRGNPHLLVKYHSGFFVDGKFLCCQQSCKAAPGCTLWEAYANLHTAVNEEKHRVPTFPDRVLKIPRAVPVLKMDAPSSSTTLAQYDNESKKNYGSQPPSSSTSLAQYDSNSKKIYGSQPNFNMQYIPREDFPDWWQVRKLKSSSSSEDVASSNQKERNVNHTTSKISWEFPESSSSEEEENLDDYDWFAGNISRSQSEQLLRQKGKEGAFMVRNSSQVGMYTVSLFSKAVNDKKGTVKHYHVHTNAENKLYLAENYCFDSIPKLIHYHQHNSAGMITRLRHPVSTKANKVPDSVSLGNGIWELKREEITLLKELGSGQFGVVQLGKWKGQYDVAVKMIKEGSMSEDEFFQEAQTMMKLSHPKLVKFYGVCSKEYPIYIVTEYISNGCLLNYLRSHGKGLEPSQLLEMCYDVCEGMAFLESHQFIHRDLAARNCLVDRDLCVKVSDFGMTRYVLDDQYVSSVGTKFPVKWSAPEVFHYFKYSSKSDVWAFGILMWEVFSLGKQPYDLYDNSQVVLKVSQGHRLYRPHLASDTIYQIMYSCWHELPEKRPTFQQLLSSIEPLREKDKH
Briefly: Full kinase panel, single concentration: BMX. The settings on record: read-out: residual enzyme activity (%) BMX. How it is done:
as §1, §2

Assay [5] has as its target T2, LYN. Briefly: Full kinase panel, single concentration: LYN. Conditions: read-out: residual enzyme activity (%) LYN. How it is done: as §1, §2
A further assay concerns the target CSK (Homo sapiens, UniProt P41240). Briefly: Full kinase panel, single concentration: CSK. The settings on record: read-out: residual enzyme activity (%) CSK. Here is the method:
as §1, §2

For assay [6], the target named is T6, DDR1 (Homo sapiens, UniProt Q08345). Nature of the assay: Full kinase panel, single concentration: DDR1. The settings on record: read-out: residual enzyme activity (%) DDR1. How it is done:
as §1, §2

For a further assay, the target named is ABL1 (T315I) (Homo sapiens, UniProt P00519, T315I). Briefly: IC50 inhibitory activity against ABL1 (T315I) kinase. Here is the method: as §3
The target in another assay is HCK (Homo sapiens, UniProt P08631). Briefly: Full kinase panel, single concentration: HCK. The settings on record: read-out: residual enzyme activity (%) HCK. How it is done: as §1, §2
Assay [7] deals with T4, c-Src. Briefly: Full kinase panel, single concentration: c-Src. The settings on record: read-out: residual enzyme activity (%) c-Src. How it is done: as §1, §2
In assay [8] the target is T1, LCK. Nature of the assay: IC50 inhibitory activity against LCK kinase. Here is the method: as §3
The target in assay [9] is T6, DDR1. Nature of the assay: IC50 inhibitory activity against DDR1 kinase. Here is the method: as §3
The target in the next assay is RAF1 (Homo sapiens, UniProt P04049). Nature of the assay: Full kinase panel, single concentration: RAF1. The settings on record: read-out: residual enzyme activity (%) RAF1. How it is done:
as §1, §2

The target of the next assay is BLK (Homo sapiens, UniProt P51451). Briefly: Full kinase panel, single concentration: BLK. Conditions: read-out: residual enzyme activity (%) BLK. Here is the method: as §1, §2
Assay [10] deals with T3, FGR. Nature of the assay: Full kinase panel, single concentration: FGR. Conditions: read-out: residual enzyme activity (%) FGR. How it is done:
as §1, §2

For another assay, the target named is T7, DDR2 (Homo sapiens, UniProt Q16832).
T7 sequence (Q16832 22-855): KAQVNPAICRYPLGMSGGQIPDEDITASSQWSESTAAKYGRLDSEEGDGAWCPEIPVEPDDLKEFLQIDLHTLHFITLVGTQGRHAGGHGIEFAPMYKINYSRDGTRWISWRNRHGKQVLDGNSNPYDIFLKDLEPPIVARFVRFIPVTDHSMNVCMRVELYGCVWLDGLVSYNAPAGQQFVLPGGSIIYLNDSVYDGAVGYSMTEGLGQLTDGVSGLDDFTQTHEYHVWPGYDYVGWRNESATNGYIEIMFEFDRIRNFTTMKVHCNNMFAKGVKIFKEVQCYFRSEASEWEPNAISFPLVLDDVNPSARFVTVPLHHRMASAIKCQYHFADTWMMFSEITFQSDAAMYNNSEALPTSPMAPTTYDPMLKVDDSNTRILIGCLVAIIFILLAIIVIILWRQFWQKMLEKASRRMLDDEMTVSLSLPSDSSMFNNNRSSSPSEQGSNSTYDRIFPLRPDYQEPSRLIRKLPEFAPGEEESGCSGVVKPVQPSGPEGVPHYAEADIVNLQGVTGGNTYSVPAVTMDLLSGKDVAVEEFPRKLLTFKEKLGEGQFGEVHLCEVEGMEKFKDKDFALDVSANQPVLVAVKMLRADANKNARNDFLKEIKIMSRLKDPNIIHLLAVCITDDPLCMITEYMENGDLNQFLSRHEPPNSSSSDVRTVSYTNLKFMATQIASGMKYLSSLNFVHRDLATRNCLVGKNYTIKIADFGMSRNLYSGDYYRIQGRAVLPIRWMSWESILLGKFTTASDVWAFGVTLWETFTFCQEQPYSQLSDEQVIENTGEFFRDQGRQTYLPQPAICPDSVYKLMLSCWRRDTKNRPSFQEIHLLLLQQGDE
Briefly: Full kinase panel, single concentration: DDR2. The settings on record: read-out: residual enzyme activity (%) DDR2. Here is the method: as §1, §2

The target of a further assay is p38a/MAPK14 (Homo sapiens, UniProt Q16539). Nature of the assay: IC50 inhibitory activity against p38a/MAPK14 kinase. How it is done: as §3
The next assay has as its target ABL1 (Homo sapiens, UniProt P00519). Briefly: IC50 inhibitory activity against ABL1 kinase. Here is the method:
as §3

T1 sequence (P06239 whole entry): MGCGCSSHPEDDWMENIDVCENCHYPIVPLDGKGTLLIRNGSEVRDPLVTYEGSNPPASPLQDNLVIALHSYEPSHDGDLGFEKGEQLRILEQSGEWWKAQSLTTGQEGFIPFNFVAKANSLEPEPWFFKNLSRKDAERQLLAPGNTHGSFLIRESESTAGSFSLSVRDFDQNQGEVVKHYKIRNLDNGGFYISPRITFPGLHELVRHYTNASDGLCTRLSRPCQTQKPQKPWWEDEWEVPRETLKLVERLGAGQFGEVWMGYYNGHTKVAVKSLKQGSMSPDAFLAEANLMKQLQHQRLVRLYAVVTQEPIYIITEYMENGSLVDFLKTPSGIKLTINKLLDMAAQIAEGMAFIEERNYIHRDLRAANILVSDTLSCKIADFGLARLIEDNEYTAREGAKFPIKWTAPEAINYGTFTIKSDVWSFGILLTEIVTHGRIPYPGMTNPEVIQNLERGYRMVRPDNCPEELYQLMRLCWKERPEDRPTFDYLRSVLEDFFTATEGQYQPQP
T3 sequence (P09769 whole entry): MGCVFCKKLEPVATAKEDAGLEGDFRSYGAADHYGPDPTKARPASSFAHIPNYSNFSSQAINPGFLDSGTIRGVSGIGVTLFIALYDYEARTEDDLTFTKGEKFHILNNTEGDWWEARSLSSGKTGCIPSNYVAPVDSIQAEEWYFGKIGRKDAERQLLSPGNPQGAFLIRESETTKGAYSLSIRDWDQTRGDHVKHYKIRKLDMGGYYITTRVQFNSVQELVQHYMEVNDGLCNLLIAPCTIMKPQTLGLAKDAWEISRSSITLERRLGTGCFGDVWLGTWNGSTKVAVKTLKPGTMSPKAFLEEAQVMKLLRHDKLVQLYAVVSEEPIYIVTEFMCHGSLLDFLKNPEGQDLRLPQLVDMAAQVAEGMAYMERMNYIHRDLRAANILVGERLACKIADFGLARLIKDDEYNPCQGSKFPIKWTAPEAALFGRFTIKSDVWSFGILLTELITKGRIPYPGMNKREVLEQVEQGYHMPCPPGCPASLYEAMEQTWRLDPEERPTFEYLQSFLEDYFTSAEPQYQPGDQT
T6 sequence (Q08345 19-913): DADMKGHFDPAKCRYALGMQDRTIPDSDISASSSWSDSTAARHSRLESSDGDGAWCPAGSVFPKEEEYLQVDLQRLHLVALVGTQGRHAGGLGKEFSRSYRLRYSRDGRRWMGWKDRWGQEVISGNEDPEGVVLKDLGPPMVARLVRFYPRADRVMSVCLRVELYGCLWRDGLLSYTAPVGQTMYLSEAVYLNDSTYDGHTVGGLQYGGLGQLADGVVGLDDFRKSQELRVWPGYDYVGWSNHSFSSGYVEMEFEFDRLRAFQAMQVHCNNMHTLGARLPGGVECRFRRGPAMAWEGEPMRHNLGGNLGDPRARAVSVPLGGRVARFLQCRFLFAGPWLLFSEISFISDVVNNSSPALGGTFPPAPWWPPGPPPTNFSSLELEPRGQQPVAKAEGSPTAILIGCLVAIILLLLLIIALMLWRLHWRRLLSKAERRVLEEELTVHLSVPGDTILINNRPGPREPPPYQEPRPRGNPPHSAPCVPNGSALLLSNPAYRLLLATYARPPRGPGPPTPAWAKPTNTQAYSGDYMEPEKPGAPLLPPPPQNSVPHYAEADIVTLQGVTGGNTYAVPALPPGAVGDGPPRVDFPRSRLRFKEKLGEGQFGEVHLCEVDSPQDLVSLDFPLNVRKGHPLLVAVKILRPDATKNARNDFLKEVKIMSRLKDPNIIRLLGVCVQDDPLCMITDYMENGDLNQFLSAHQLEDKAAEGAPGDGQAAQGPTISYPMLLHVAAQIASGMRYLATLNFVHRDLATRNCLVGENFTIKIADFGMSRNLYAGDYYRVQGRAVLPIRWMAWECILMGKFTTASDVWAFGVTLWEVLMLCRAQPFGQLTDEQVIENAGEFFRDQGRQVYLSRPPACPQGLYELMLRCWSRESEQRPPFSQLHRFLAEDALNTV
T4 sequence (P12931 whole entry): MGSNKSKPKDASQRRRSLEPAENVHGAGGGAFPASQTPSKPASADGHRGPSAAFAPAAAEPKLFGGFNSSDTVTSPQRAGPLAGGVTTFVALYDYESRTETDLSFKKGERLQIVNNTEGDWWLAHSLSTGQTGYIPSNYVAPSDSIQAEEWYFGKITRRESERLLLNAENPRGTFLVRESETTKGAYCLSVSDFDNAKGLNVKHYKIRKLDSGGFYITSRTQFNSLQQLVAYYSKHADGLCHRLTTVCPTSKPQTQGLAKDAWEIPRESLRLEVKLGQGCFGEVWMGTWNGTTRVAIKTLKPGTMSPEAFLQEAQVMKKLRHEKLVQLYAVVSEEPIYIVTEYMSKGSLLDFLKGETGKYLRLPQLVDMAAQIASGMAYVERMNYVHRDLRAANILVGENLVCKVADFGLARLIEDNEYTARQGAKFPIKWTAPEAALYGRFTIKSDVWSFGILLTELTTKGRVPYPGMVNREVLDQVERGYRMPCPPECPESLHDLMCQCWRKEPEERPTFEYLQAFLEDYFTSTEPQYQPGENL
T2 sequence (P07948 whole entry): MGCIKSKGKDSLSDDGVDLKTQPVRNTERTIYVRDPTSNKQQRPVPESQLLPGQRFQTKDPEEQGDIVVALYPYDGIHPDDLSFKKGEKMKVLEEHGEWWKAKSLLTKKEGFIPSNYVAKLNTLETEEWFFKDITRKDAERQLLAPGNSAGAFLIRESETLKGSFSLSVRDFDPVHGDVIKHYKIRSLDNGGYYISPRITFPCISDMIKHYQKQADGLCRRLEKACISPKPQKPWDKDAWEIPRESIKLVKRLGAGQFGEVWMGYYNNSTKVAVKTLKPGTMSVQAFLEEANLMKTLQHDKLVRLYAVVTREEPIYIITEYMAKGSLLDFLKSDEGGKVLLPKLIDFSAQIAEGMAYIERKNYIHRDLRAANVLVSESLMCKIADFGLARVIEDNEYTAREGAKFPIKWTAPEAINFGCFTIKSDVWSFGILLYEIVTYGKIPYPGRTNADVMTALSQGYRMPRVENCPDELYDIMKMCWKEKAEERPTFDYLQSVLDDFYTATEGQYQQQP
Sequence of HCK (P08631 whole entry): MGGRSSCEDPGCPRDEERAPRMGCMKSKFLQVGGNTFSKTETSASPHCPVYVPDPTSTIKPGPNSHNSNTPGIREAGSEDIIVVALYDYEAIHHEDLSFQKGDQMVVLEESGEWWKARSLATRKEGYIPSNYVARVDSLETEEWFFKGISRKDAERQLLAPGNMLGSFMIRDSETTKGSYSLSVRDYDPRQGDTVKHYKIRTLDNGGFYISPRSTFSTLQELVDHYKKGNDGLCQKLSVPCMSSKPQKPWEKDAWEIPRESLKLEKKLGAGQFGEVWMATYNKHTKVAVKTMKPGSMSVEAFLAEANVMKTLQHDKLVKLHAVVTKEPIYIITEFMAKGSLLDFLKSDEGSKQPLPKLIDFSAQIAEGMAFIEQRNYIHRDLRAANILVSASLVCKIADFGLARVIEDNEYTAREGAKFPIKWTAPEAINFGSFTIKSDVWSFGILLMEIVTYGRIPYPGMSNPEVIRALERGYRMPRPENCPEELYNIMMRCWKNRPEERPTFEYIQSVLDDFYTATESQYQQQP
Sequence of p38a/MAPK14 (Q16539 whole entry): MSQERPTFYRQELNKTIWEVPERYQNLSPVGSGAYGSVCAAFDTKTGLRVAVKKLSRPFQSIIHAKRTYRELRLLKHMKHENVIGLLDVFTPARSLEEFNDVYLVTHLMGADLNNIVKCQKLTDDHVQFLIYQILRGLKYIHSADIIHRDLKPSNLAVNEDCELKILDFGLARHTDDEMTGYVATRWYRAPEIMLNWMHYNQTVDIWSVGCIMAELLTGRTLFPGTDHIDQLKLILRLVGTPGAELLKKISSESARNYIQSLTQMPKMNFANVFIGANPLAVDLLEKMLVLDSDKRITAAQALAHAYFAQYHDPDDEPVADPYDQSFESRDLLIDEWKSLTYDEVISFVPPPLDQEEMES
Sequence of RAF1 (P04049 whole entry): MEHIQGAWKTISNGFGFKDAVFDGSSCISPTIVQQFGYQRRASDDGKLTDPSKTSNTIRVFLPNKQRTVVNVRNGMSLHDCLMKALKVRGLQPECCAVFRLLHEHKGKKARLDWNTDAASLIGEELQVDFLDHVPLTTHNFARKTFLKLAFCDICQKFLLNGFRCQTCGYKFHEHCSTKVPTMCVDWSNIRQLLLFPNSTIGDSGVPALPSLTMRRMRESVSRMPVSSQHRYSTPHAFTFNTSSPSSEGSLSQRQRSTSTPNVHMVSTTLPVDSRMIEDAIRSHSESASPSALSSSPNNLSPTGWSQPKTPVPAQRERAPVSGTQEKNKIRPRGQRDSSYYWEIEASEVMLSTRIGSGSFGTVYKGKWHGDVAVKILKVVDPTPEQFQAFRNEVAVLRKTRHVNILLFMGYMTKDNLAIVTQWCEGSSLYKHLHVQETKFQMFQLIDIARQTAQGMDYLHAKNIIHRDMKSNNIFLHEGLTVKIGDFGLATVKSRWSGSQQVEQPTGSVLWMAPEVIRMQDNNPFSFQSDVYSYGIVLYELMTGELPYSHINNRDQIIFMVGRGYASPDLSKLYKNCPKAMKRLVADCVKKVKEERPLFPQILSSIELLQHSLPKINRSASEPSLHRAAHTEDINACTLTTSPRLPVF
Sequence of CSK (P41240 whole entry): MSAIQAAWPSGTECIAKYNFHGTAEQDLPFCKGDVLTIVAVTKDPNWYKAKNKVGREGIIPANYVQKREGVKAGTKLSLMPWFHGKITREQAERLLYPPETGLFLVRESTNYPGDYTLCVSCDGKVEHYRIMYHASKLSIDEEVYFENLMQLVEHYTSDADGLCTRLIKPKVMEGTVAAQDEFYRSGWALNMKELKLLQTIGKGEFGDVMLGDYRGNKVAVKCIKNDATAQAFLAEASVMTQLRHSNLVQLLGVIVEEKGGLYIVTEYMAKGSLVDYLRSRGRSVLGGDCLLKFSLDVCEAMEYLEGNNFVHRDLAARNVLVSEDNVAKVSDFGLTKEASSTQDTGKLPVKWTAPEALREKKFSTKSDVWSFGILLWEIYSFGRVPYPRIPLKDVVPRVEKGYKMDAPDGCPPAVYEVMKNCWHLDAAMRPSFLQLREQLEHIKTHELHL

In the case of `Cc1ccc(Nc2ncc3c(n2)N(C)C(=O)N(c2cc(NC(=O)c4ccc5c(c4)N(Cc4ccccc4)C(=O)[C@H](CC(C)C)N=C5c4ccccc4)ccc2C)C3)cn1` [Example 33, (S)-1-benzyl-3-isobutyl-N-(4-methyl-3-(1-methyl-7-((6-methylpyridin-3-yl)amino)-2-oxo-1,4-dihydropyrimido[4,5-d]pyrimidin-3(2H)-yl)phenyl)-2-oxo-5-phenyl-2,3-dihydro-1H-benzo[e][1,4]diazepine-8-carboxamide], the remaining activity at 1 µM at LCK [1] (single concentration of 1 μM), at ABL2 (single concentration of 1 μM), at BMX (single concentration of 1 μM), at LYN [5] (single concentration of 1 μM), on CSK (single concentration of 1 μM) and at DDR1 [6] (single concentration of 1 μM) was at most 30% each time. Further, the remaining activity at 1 µM at HCK (single concentration of 1 μM), at c-Src [7] (single concentration of 1 μM), on RAF1 (single concentration of 1 μM), on BLK (single concentration of 1 μM), at FGR [10] (single concentration of 1 μM) and on DDR2 (single concentration of 1 μM) was at most 30% throughout. Moreover, the IC50 against LYN [2] is 1 to 200 nM; on FGR [3] (read-out: FGR IC50) it was 1 to 200 nM; at c-Src [4] (read-out: c-Src IC50), 400 to 600 nM; at ABL1 (T315I) (read-out: ABL1 (T315I) IC50), above 600 nM; on LCK [8] (read-out: LCK IC50) it was 1 to 200 nM; at DDR1 [9] (read-out: DDR1 IC50), 1 to 200 nM. Besides, the IC50 on p38a/MAPK14 (read-out: p38a/MAPK14 IC50) was above 600 nM; at ABL1 (read-out: ABL1 IC50) it was 400 to 600 nM.
For the compound `Cc1ccc(Nc2ncc3c(n2)N(C)C(=O)N(c2cc(C(=O)N[C@H](C(=O)N4CCC[C@H]4C(=O)NC(C)(C)C(=O)N[C@@H](CC(C)C)C(=O)N(C)C)C(C)C)ccc2C)C3)cn1` [Example 1, (S)—N-(1-(((S)-1-(dimethylamino)-4-methyl-1-oxopentan-2-yl)amino)-2-methyl-1-oxopropan-2-yl)-1-((4-methyl-3-(1-methyl-7-((6-methylpyridin-3-yl)amino)-2-oxo-1,4-dihydropyrimido[4,5-d]pyrimidin-3(2H)-yl)benzoyl)-L-valyl)pyrrolidine-2-carboxamide] (X1-VP[Aib]L-NMe2), the remaining activity at 1 µM at LCK [1], on ABL2, on BMX, at LYN [5], at CSK and at DDR1 [6] was at most 30% in each case. The remaining activity at 1 µM on HCK, at c-Src [7], at RAF1, on BLK, at FGR [10] and at DDR2 was at most 30% each time. The IC50 on FGR [3] was 1 to 200 nM; at c-Src [4], above 600 nM; on ABL1 (T315I), above 600 nM; on LCK [8], 1 to 200 nM; on DDR1 [9], 1 to 200 nM; on p38a/MAPK14 it was above 600 nM. Moreover, the IC50 against ABL1 was 200 to 400 nM.
